Reference: publication PMC4431184, “The Use of the LanthaScreen TR-FRET CAR Coactivator Assay in the Characterization of Constitutive Androstane Receptor (CAR) Inverse Agonists” (Sensors (Basel, Switzerland), 2015)
pIC50: −log10 of the molar value.

What was measured:
[1] = biological target: T1, human CAR ligand-binding domain (LBD) (Homo sapiens, UniProt Q14994); assay: LanthaScreen TR-FRET CAR Coactivator Assay; format: biochemical; details: for pIC50: IC50 (95% Conf. Interv.), TR-FRET CAR Assay; for fold activation compared to vehicle control: CITCO 10 μM
T1 sequence (Q14994 109-352 limits assumed): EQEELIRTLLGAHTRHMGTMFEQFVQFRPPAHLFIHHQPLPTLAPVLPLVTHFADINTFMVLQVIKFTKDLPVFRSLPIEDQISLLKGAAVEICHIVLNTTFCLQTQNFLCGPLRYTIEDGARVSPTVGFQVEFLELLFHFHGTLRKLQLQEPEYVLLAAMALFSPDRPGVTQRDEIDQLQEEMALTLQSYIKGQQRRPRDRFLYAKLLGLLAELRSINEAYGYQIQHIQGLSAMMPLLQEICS
Text: The LanthaScreen^TMTR-FRET CAR Coactivator Binding Assay (Cat. No. PV4836, now produced by Thermo) was used with slight modifications of the manufacturer’s protocol. The assay uses two fluorophores: a terbium-labeled anti-GST antibody interacting with glutathione-S-transferase (GST) tagged human CAR ligand-binding domain (LBD) and a fluorescein-labeled PGC1α coactivator peptide (Figure 1). […] Thus, this energy transfer is detected by an increase in the fluorescence emission of the acceptor (fluorescein) and a decrease in the fluorescence emission of the donor (terbium). To quantify the process, TR-FRET is expressed as a ratio of the intensities of the acceptor and donor fluorophores. […] Incubation time was optimized from 1 to 4 h at room temperature and protected from light. […] According to the recommended protocol of the manufacturer, CAR-LBD is added to the solution of test compounds, followed by the addition of a mixture of the fluorescein-coactivator peptide and terbium-labeled anti-GST antibody. In the study we also tested to determine if the order of adding the constituents in the mixture may have an influence on the sensitivity and reproducibility of the assay. […] The terbium was excited using a 340-nm excitation filter with a 30-nm bandwidth and fluorescein was excited with the first emission peak of terbium centered at 495 nm. Energy transfer to fluorescein emission (520 nm) is then measured in the silent region between the first two terbium emission peaks centered at 490 and 545 nm (see Graphical Abstract). […] Delay time was set at 100 μs and integration time 200 μs. Gains set to 100 were the use constant in all the experiments. The 520 nm/495 nm TR-FRET ratio was then calculated. […] The values above the baseline represent activation of CAR LBD-PGC1α interaction and agonistic activity of the tested ligand. The experiments were performed at least three times in quadruplicates. Data are presented as the means and S.D. from three independent experiments (n = 3). […] Dose-response curves were generated by plotting the emission TR-FRET ratio vs. the log of a ligand (in μM). To determine the half maximal inhibitory concentration (IC50) value, the data were fitted using an equation for a sigmoidal dose response inhibition (with a varying slope) using the software GraphPad™ PRISM version 6.05. Z-factors were calculated using the method of Zhang et al..

human CAR LBD = biological target: T2, human CAR LBD (Homo sapiens, UniProt Q14994); assay: CAR LBD assembly assay (GAL4/VP16 luciferase reporter in HepG2 cells); format: cell-based; details: CITCO 1 µM, up to highest studied concentration 30 µM
T2 construct: encoding C (151–349 aa, helices 3–12, pCAR-C/VP16); N (103–150 aa, helix 1, pCAR-N/GAL4) terminal parts of human CAR LBD; expressed in transfected cells; host or cells: HepG2
T2 sequence (Q14994 103-150 isoform Q14994-2): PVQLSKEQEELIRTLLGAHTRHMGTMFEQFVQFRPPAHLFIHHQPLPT
T2 sequence (Q14994 151-348 isoform Q14994-2): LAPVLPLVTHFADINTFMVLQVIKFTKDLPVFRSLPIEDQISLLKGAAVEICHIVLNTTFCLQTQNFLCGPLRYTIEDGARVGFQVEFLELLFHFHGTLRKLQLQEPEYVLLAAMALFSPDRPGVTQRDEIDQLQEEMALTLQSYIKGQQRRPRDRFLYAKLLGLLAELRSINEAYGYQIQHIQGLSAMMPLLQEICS
Method: The CAR LBD assembly assay was performed according to the protocol we described in our latest report. The CAR LBD assembly assay is based on two hybrid expression constructs encoding C (151–349 aa, helices 3–12, pCAR-C/VP16) and N (103–150 aa, helix 1, pCAR-N/GAL4) terminal parts of human CAR LBD that are co-transfected together with the pGL5-luc luciferase gene reporter plasmid (Promega) containing GAL4 binding sites. When the CAR LBD interacts with a ligand (both agonist and antagonist), connection of the helix 1 to CAR LBD helices 3–12 promotes firefly luciferase activation. Thus, the assay monitor interaction of CAR LBD with ligands rather than its activation or deactivation.

C[C@]12CC[C@@H](O)C[C@@H]1CC[C@@H]1[C@@H]2CC[C@]2(C)C=CC[C@@H]12 [Androstenol, 5α-androst-16-en-3α-ol]
pIC50 ([1]; CITCO 1 μM, antagonist mode, with agonist CITCO 1 μM): 3.51
pIC50 ([1]; No CITCO, inverse agonist mode, reduction of CAR constitutive activity): 6.46
concentration at which consistent antagonistic effect on CITCO was observed ([1]; with CITCO 1 μM): 30 µM
inhibition of CITCO-mediated CAR LBD interaction with PGC1α ([1]; with CITCO 1 μM, serial dilution): did not show any significant inhibition
inhibition of the activity of CITCO (human CAR LBD): weakest inhibition
inhibition of the activity of CITCO (human CAR LBD; listed as androstenol): weaker inhibition

Clc1ccc(-c2nc3sccn3c2C=NOCc2ccc(Cl)c(Cl)c2)cc1 [CITCO, 6-(4-Chlorophenyl)imidazo[2,1-b][1,3]thiazole-5-carbaldehyde O-(3,4-dichlorobenzyl)oxime]
fold activation compared to vehicle control ([1]; modified order: CAR-LBD and fluorescein-/terbium-labeled reagents before the agonist (Figure 2B)): 1.94 fold
fold activation compared to vehicle control ([1]; modified order: ligand, fluorescein-PGC1α and Tb antibody, then CAR-LBD (Figure 2A)): 2.26 fold
fold activation compared to vehicle control ([1]; standard procedure (Figure 2C)): 2.56 fold

Clc1ccccc1C(c1ccccc1)(c1ccccc1)n1ccnc1 [Clotrimazole, 1-[(2-Chlorophenyl)diphenylmethyl]-1H-imidazole]
effect on interaction of CAR LBD with the PGC1α coactivator ([1]; 10 μM, no CITCO): almost completely inhibited
effect on constitutive activity of CAR ([1]; 30 μM): abolish the constitutive activity of CAR
effect on CITCO-mediated CAR LBD interaction with PGC1α ([1]; 30 μM, with CITCO): completely abrogated the effect of CITCO
effect on constitutive activity of CAR ([1]; concentrations of 20 and 30 μM): abolished constitutive activity of CAR
concentration with significant inhibition of CAR LBD constitutive activity ([1]; no CITCO): 0.01 µM
